Columns and labels:
Assay type in all cases: physicochemical
PGL-3 condensates = target: T1, PGL-3 condensates (Caenorhabditis elegans, UniProt G5EBV6); assay: Fluorescence imaging of dye partitioning in PGL-3 condensates (I-in, I-out); details: for Ratio of intensity inside:outside PGL-3 Condensates Day 1 / Ratio of intensity inside:outside PGL-3 Condensates Day 2 / Ratio of intensity inside:outside PGL-3 Condensates Average: I-in:I-out; for Ratio of intensity inside:outside PGL-3 Condensates Day 1 / Ratio of intensity inside:outside PGL-3 Condensates Day 2 / Ratio of intensity inside:outside PGL-3 Condensates Average / Intensity Inside with Dye Average / Intensity Inside with Dye 1 / Intensity Inside with Dye 2 / Intensity Inside with Dye 3 / Intensity Outside with Dye Average / Intensity Outside with Dye 1 / Intensity Outside with Dye 2 / Intensity Outside with Dye 3: 10 μM dye; for Ratio of intensity inside:outside PGL-3 Condensates Average: average of two days; for Intensity Inside with Dye Average / Intensity Inside with Dye 1 / Intensity Inside with Dye 2 / Intensity Inside with Dye 3 / Intensity Inside Dye-No Dye: inside PGL-3 condensate; for Intensity Inside with Dye Average / Intensity Inside with Dye 1 / Intensity Inside with Dye 2 / Intensity Inside with Dye 3 / Intensity Outside with Dye Average / Intensity Outside with Dye 1 / Intensity Outside with Dye 2 / Intensity Outside with Dye 3: 5 μM protein; for Intensity Inside with Dye Average / Intensity Outside with Dye Average: average of three images; for Intensity Inside with Dye Average / Intensity Inside with Dye 1 / Intensity Inside with Dye 2 / Intensity Inside with Dye 3 / Intensity Inside Dye-No Dye / Intensity Outside with Dye Average / Intensity Outside with Dye 1 / Intensity Outside with Dye 2 / Intensity Outside with Dye 3 / Intensity Outside (Dye-No Dye): one day of experiments; for Intensity Inside with Dye 1 / Intensity Outside with Dye 1: image 1; for Intensity Inside with Dye 2 / Intensity Outside with Dye 2: image 2; for Intensity Inside with Dye 3 / Intensity Outside with Dye 3: image 3; for Intensity Inside Dye-No Dye / Intensity Outside (Dye-No Dye): background corrected; for Intensity Outside with Dye Average / Intensity Outside with Dye 1 / Intensity Outside with Dye 2 / Intensity Outside with Dye 3 / Intensity Outside (Dye-No Dye): outside PGL-3 condensate
T1 sequence (G5EBV6 1-693): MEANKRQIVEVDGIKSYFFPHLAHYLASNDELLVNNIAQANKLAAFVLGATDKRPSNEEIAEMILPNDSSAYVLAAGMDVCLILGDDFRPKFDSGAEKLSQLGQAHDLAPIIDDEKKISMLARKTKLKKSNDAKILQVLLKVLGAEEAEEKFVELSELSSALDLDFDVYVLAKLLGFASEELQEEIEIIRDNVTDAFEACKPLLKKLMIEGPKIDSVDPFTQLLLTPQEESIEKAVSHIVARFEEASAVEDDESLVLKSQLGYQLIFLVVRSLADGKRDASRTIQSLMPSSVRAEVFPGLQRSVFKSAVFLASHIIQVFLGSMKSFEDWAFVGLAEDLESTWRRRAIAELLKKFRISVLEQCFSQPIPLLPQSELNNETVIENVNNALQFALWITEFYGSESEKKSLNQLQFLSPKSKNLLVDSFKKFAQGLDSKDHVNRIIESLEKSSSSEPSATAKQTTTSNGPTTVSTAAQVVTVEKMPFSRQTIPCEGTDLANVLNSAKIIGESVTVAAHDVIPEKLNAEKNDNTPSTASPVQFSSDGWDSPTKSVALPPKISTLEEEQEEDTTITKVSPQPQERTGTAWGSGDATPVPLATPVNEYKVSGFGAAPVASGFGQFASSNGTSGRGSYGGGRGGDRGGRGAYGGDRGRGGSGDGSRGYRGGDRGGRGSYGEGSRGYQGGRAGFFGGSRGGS
How it was run: (§1)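 Partitioning read by spinning-disk confocal imaging (60× oil, dye-specific exposure 1-1000 ms) of condensates formed from 5 μM protein (FUS-SNAP or untagged PGL-3) plus 10 μM dye, 75 mM KCl, 1% DMSO, pH 7.25. Background-subtracted intensities inside and beside one condensate per image, three images averaged.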

[1] = tested on: FUS-SNAP condensates versus PGL-3 condensates; assay: Condensate preference: ratio of FUS-SNAP I-in:I-out to PGL-3 I-in:I-out; details: average FUS-SNAP I-in:I-out divided by average PGL-3 I-in:I-out
Protocol: The ratios of the average intensity measured in the target condensates and outside of the target condensates were calculated by dividing I-in by I-out, although dividing I-out by I-in could also have been used. The I-in:I-out ratios determined from the two different days of experiments were then averaged. The average I-in:I-out ratios for FUS-SNAP condensates are shown in FIG. 3 and the average I-in:I-out ratios for PGL-3 condensates are shown in FIG. 4. The standard deviation between the two experiments is represented by the error bars in FIG. 3 and FIG. 4.

FUS-SNAP condensates = target: T2, FUS-SNAP condensates (Homo sapiens, UniProt P35637); assay: Fluorescence imaging of dye partitioning in FUS-SNAP condensates (I-in, I-out); details: for Ratio of intensity inside:outside FUS-SNAP Condensates Day 1 / Ratio of intensity inside:outside FUS-SNAP Condensates Day 2 / Ratio of intensity inside:outside FUS-SNAP Condensates Average: I-in:I-out; for Ratio of intensity inside:outside FUS-SNAP Condensates Day 1 / Ratio of intensity inside:outside FUS-SNAP Condensates Day 2 / Ratio of intensity inside:outside FUS-SNAP Condensates Average / Intensity Inside with Dye Average / Intensity Inside with Dye 1 / Intensity Inside with Dye 2 / Intensity Inside with Dye 3 / Intensity Outside with Dye Average / Intensity Outside with Dye 1 / Intensity Outside with Dye 2 / Intensity Outside with Dye 3: 10 μM dye; for Ratio of intensity inside:outside FUS-SNAP Condensates Average: average of two days; for Intensity Inside with Dye Average / Intensity Inside with Dye 1 / Intensity Inside with Dye 2 / Intensity Inside with Dye 3 / Intensity Inside Dye-No Dye: inside FUS-SNAP condensate; for Intensity Inside with Dye Average / Intensity Inside with Dye 1 / Intensity Inside with Dye 2 / Intensity Inside with Dye 3 / Intensity Outside with Dye Average / Intensity Outside with Dye 1 / Intensity Outside with Dye 2 / Intensity Outside with Dye 3: 5 μM protein; for Intensity Inside with Dye Average / Intensity Outside with Dye Average: average of three images; for Intensity Inside with Dye Average / Intensity Inside with Dye 1 / Intensity Inside with Dye 2 / Intensity Inside with Dye 3 / Intensity Inside Dye-No Dye / Intensity Outside with Dye Average / Intensity Outside with Dye 1 / Intensity Outside with Dye 2 / Intensity Outside with Dye 3 / Intensity Outside (Dye-No Dye): one day of experiments; for Intensity Inside with Dye 1 / Intensity Outside with Dye 1: image 1; for Intensity Inside with Dye 2 / Intensity Outside with Dye 2: image 2; for Intensity Inside with Dye 3 / Intensity Outside with Dye 3: image 3; for Intensity Inside Dye-No Dye / Intensity Outside (Dye-No Dye): background corrected; for Intensity Outside with Dye Average / Intensity Outside with Dye 1 / Intensity Outside with Dye 2 / Intensity Outside with Dye 3 / Intensity Outside (Dye-No Dye): outside FUS-SNAP condensate
T2 sequence (P35637 1-526): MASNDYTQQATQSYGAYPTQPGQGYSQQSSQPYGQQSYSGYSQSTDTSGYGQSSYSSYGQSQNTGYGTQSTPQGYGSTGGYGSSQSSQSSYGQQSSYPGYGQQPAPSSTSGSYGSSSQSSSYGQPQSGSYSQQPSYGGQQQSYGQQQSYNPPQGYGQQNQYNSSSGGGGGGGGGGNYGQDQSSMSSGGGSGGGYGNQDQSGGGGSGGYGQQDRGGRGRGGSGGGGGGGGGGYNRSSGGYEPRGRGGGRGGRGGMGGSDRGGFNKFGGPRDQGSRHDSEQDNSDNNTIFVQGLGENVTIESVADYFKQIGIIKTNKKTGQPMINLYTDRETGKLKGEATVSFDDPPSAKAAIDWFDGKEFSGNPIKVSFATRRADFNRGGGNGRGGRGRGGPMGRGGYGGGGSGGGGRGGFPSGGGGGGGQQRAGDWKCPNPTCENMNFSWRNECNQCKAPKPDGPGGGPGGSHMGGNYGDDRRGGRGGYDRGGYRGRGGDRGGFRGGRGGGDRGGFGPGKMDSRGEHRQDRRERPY
How it was run: as §1

CC(=O)N[C@H]1[C@H](Oc2ccc3c(c2)Oc2cc(O)ccc2C32OC(=O)c3ccccc32)O[C@H](CO)[C@H](O)[C@@H]1O (stereo partly drawn) [Dye 5, Fluorescein mono-(N-acetyl-β-D-galactosaminide)]
Ratio of intensity inside:outside PGL-3 Condensates Day 1 (PGL-3 condensates): 1.0
Ratio of intensity inside:outside PGL-3 Condensates Day 2 (PGL-3 condensates): 1.1
Ratio of intensity inside:outside PGL-3 Condensates Average (PGL-3 condensates): 1.1
Intensity Inside with Dye Average (PGL-3 condensates): 1834.5
Intensity Inside with Dye 1 (PGL-3 condensates): 1912.6
Intensity Inside with Dye 2 (PGL-3 condensates): 1794.0
Intensity Inside with Dye 3 (PGL-3 condensates): 1797.0
Intensity Inside Dye-No Dye (PGL-3 condensates): 1237.3
Intensity Outside with Dye Average (PGL-3 condensates): 1392.9
Intensity Outside with Dye 1 (PGL-3 condensates): 1439.0
Intensity Outside with Dye 2 (PGL-3 condensates): 1386.2
Intensity Outside with Dye 3 (PGL-3 condensates): 1353.5
Intensity Outside (Dye-No Dye) (PGL-3 condensates): 1230.0
Ratio of FUS-SNAP:PGL-3 [1]: 1.3
Ratio of intensity inside:outside FUS-SNAP Condensates Day 1 (FUS-SNAP condensates): 1.2
Ratio of intensity inside:outside FUS-SNAP Condensates Day 2 (FUS-SNAP condensates): 1.4
Ratio of intensity inside:outside FUS-SNAP Condensates Average (FUS-SNAP condensates): 1.3
Intensity Inside with Dye Average (FUS-SNAP condensates): 1896.7
Intensity Inside with Dye 1 (FUS-SNAP condensates): 2046.8
Intensity Inside with Dye 2 (FUS-SNAP condensates): 2005.1
Intensity Inside with Dye 3 (FUS-SNAP condensates): 1638.1
Intensity Inside Dye-No Dye (FUS-SNAP condensates): 1399.1
Intensity Outside with Dye Average (FUS-SNAP condensates): 1272.5
Intensity Outside with Dye 1 (FUS-SNAP condensates): 1319.4
Intensity Outside with Dye 2 (FUS-SNAP condensates): 1306.9
Intensity Outside with Dye 3 (FUS-SNAP condensates): 1191.0
Intensity Outside (Dye-No Dye) (FUS-SNAP condensates): 1132.4

O=C(CCCC[C@@H]1SCC2NC(=O)NC21)NCCNC(=O)c1ccc(-c2c3ccc(=O)cc-3oc3ccc(O)cc23)c(C(=O)O)c1 (stereo partly shown) [Dye 13, Biotin-4-Fluorescein]
Ratio of intensity inside:outside PGL-3 Condensates Day 1 (PGL-3 condensates): 1.1
Ratio of intensity inside:outside PGL-3 Condensates Day 2 (PGL-3 condensates): 1.1
Ratio of intensity inside:outside PGL-3 Condensates Average (PGL-3 condensates): 1.1
Intensity Inside with Dye Average (PGL-3 condensates): 3038.9
Intensity Inside with Dye 1 (PGL-3 condensates): 2939.4
Intensity Inside with Dye 2 (PGL-3 condensates): 3141.8
Intensity Inside with Dye 3 (PGL-3 condensates): 3035.4
Intensity Inside Dye-No Dye (PGL-3 condensates): 2892.4
Intensity Outside with Dye Average (PGL-3 condensates): 2837.5
Intensity Outside with Dye 1 (PGL-3 condensates): 2781.8
Intensity Outside with Dye 2 (PGL-3 condensates): 2905.7
Intensity Outside with Dye 3 (PGL-3 condensates): 2825.1
Intensity Outside (Dye-No Dye) (PGL-3 condensates): 2732.2
Ratio of FUS-SNAP:PGL-3 [1]: 2.0
Ratio of intensity inside:outside FUS-SNAP Condensates Day 1 (FUS-SNAP condensates): 2.1
Ratio of intensity inside:outside FUS-SNAP Condensates Day 2 (FUS-SNAP condensates): 2.1
Ratio of intensity inside:outside FUS-SNAP Condensates Average (FUS-SNAP condensates): 2.1
Intensity Inside with Dye Average (FUS-SNAP condensates): 4669.4
Intensity Inside with Dye 1 (FUS-SNAP condensates): 4600.2
Intensity Inside with Dye 2 (FUS-SNAP condensates): 4189.8
Intensity Inside with Dye 3 (FUS-SNAP condensates): 5218.3
Intensity Inside Dye-No Dye (FUS-SNAP condensates): 4534.2
Intensity Outside with Dye Average (FUS-SNAP condensates): 2242.3
Intensity Outside with Dye 1 (FUS-SNAP condensates): 2286.6
Intensity Outside with Dye 2 (FUS-SNAP condensates): 2244.6
Intensity Outside with Dye 3 (FUS-SNAP condensates): 2195.6
Intensity Outside (Dye-No Dye) (FUS-SNAP condensates): 2138.2

Polysucrose 40-fluorescein isothiocyanate conjugate [Dye 10]
Ratio of intensity inside:outside PGL-3 Condensates Day 1 (PGL-3 condensates): 1.0
Ratio of intensity inside:outside PGL-3 Condensates Day 2 (PGL-3 condensates): 0.9
Ratio of intensity inside:outside PGL-3 Condensates Average (PGL-3 condensates): 0.9
Intensity Inside with Dye Average (PGL-3 condensates): 5674.9
Intensity Inside with Dye 1 (PGL-3 condensates): 5747.5
Intensity Inside with Dye 2 (PGL-3 condensates): 6281.4
Intensity Inside with Dye 3 (PGL-3 condensates): 4996.0
Intensity Inside Dye-No Dye (PGL-3 condensates): 5528.4
Intensity Outside with Dye Average (PGL-3 condensates): 5893.8
Intensity Outside with Dye 1 (PGL-3 condensates): 5900.4
Intensity Outside with Dye 2 (PGL-3 condensates): 6581.6
Intensity Outside with Dye 3 (PGL-3 condensates): 5199.5
Intensity Outside (Dye-No Dye) (PGL-3 condensates): 5788.5
Ratio of FUS-SNAP:PGL-3 [1]: 1.1
Enrichment of dye in the condensate (fluorescent images) (FUS-SNAP condensates; FIG. 1, exemplary images of Example 2, condensate type not stated): not enriched in the condensate
Ratio of intensity inside:outside FUS-SNAP Condensates Day 1 (FUS-SNAP condensates): 1.0
Ratio of intensity inside:outside FUS-SNAP Condensates Day 2 (FUS-SNAP condensates): 1.1
Ratio of intensity inside:outside FUS-SNAP Condensates Average (FUS-SNAP condensates): 1.1
Intensity Inside with Dye Average (FUS-SNAP condensates): 5756.6
Intensity Inside with Dye 1 (FUS-SNAP condensates): 6139.7
Intensity Inside with Dye 2 (FUS-SNAP condensates): 6105.5
Intensity Inside with Dye 3 (FUS-SNAP condensates): 5024.6
Intensity Inside Dye-No Dye (FUS-SNAP condensates): 5621.4
Intensity Outside with Dye Average (FUS-SNAP condensates): 5505.3
Intensity Outside with Dye 1 (FUS-SNAP condensates): 5878.5
Intensity Outside with Dye 2 (FUS-SNAP condensates): 5846.2
Intensity Outside with Dye 3 (FUS-SNAP condensates): 4791.0
Intensity Outside (Dye-No Dye) (FUS-SNAP condensates): 5401.2
